# Patent US7132454B2, “HEXIM1 as a suppressor of HIV replication and cardiac hypertrophy” (Regents of the University of California, priority 2004, dated 2006)
# Key:
# [1] = test system: right ventricular myocytes; experiment: myocardial infarction model, HMBA by osmotic minipump; ventricular myocyte hypertrophy and action potential; format: in vivo, male Wistar rats
# From the text: In a method adapted from Perrier et al. (2004), myocardial infarction (MI) is induced in 250 to 280 g male Wistar rats by left coronary artery ligation. Only post-MI hearts that show a transmural scar are used. An osmotic minipump (Alzet 2ML4) is implanted subcutaneously at the time of surgery to deliver varying amounts of HMBA or other HPC. Control animals receive carrier solution only. Cellular responses are examined over time using whole-cell, patch-clamp techniques on right ventricular myocytes. Animals are euthanized 1 and 3 weeks after surgery with intraperitoneal injection of sodium pentobarbital. Ventricular myocytes are isolated enzymatically. Cellular hypertrophy is monitored by 2-photon microscopy (Zeiss LSM 510 NLO) to calculate cell volume and the whole-cell patch-clamp technique is used to measure membrane capacitance, an electrical index of membrane surface area. To measure cell volume, the voltage-sensitive dye 1-(3-sulfonatopropyl)-[…][b-[2-(di-n-butylamino)-6-naphthyl]vinyl]pyridium betaine (di-4-ANEPPS)-loaded cells are illuminated at 840 nm with a mode-locked Ti:sapphire laser (Mira 900, Coherent) and recorded in 3D. Images of spherical beads (Molecular Probes) are recorded under the same conditions to calculate the point spread function. Deconvolution is performed with Huygens (Bitplane AG). […] AP and K^+ are measured. […]
# [2] = test system: cardiac hypertrophy; experiment: HMBA infusion in patients having or susceptible to cardiac hypertrophy; format: in vivo; settings: 24 g/m^2/d in 10-day courses
# Description: Genetic testing, and/or ECG and echocardiography are used to diagnose patients susceptible to hypertrophic cardiomyopathy using methods described by Charron et al. (1997 & 2003). For genetic testing, candidate patients are from families involved in genetic studies in whom genetic analyses are performed and the causative mutation identified. Patients are identified as being at risk of inheriting the disease gene, i.e., they have a first-degree relative clinically affected by hypertrophic cardiomyopathy. The major diagnostic criteria for echocardiography are a left ventricular wall thickness >13 mm and, for ECG, abnormal Q waves, left ventricular hypertrophy, and marked ST-T changes. Clinical evaluation is performed, and blood samples are obtained. Using methods adapted from Andreeff et al. (1992), patients diagnosed as having or susceptible to cardiac hypertrophy are given HMBA treatment. A 5% solution of HMBA (NSC-95580) in distilled water is provided in 500-ml infusion bottles (25 g total per bottle). HMBA is administered at a dose of 24 g/m^2/d in 10-day courses, followed by an 18- to 75-day observation period. Plasma levels are determined daily (at 24 hours into the infusion). […] HMBA plasma levels are determined using HPLC.
# [3] = test system: HSV; settings: cited from earlier work
# [4] = test system: HIV; settings: cited from earlier work
# [5] = test system: human vascular smooth muscle cell (VSMC); settings: cited from earlier work
smiles,measurement,setting,value
"CC(=O)NCCCCCCNC(C)=O [HMBA, Hexamethylene bisacetamide]",action potential,"[1]; rats after myocardial infarction, 1 and 3 weeks",normal action potential
same,cellular hypertrophy,"[1]; rats, three weeks after myocardial infarction",no signs of cellular hypertrophy
same,cardiac hypertrophy by morphologic analyses,[2]; certain patients,reduces cardiac hypertrophy
same,most prominent toxicity,[2]; patients,"thrombocytopenia, generally reversible on cessation of administration"
same,activation of HSV,[3],activate viruses
same,activation of HIV,[4],activate viruses
same,VSMC proliferation,[5],inhibit human vascular smooth muscle cell (VSMC) proliferation
